This is an account of results in ChEMBL document CHEMBL1139071, “Diastereoselective synthesis of glycosylated prolines as alpha-glucosidase inhibitors and organocatalyst in asymmetric aldol reaction” (Bioorg Med Chem Lett, 2007).

One experiment is filed under the species Rattus norvegicus. The experiment is described as follows: Inhibition of rat intestinal alpha-glucosidase at 100 uM.
A short description of experiment [1]: Inhibition of rat intestinal alpha-glucosidase.

What is called inhibition is the share of the control response that was lost under treatment. The term IC50 denotes the point on the concentration scale where inhibition reaches its midpoint. High values mean a need for much substance, low ones inhibition by little substance. The Ki is a measure of affinity in units of concentration, obtained from inhibition or displacement. The low end stands for a stronger hold on the target, the high end for a looser hold on the target. As to `CCOC(=O)[C@H]1[C@H]([C@@H]2O[C@@H]3OC(C)(C)O[C@@H]3[C@H]2OCc2ccccc2)[C@@H](C(=O)OCC)N[C@H]1c1cccc([N+](=O)[O-])c1`, the inhibition in the experiment filed under Rattus norvegicus came out at 82.7%. In experiment [1], this compound yielded a half-maximal inhibitory concentration (IC50) of 61 µM and an inhibition constant Ki of 33 µM.
`C[C@H]1O[C@H](O[C@H]2[C@H](O)[C@@H](O)[C@@H](O[C@H]3[C@H](O)[C@@H](O)C(O)O[C@@H]3CO)O[C@@H]2CO)[C@H](O)[C@@H](O)[C@@H]1N[C@H]1C=C(CO)[C@@H](O)[C@H](O)[C@H]1O` (stereo partly drawn) displayed an inhibition in the experiment listed under Rattus norvegicus of 39%.
`CCOC(=O)[C@H]1[C@H](C2O[C@@H]3OC(C)(C)O[C@@H]3[C@H]2OCc2ccccc2)[C@@H](C(=O)OCC)N[C@H]1c1cccc(Cl)c1` (single isomer, unassigned) showed an inhibition in the experiment filed under Rattus norvegicus of 65.5%. In experiment [1], this compound showed a concentration for half-maximal inhibition (IC50) of 96 µM and an inhibitory constant (Ki) of 79 µM.
Turning to `CCOC(=O)[C@H]1[C@H](C2O[C@@H]3OC(C)(C)O[C@@H]3[C@H]2OCc2ccccc2)[C@@H](C(=O)OCC)N[C@H]1c1ccc(Br)cc1` (single isomer, unassigned), the inhibition in the experiment filed under Rattus norvegicus turned out to be 79.3%. In experiment [1], this compound registered an IC50 of 64 µM and a Ki of 36 µM.
`CCOC(=O)[C@H]1[C@H](C2O[C@@H]3OC(C)(C)O[C@@H]3[C@H]2OCc2ccccc2)[C@@H](C(=O)OCC)N[C@H]1c1cc(Cl)ccc1Cl` (single isomer, unassigned): in the experiment filed under Rattus norvegicus, the inhibition was 67.2%. In experiment [1], this compound came in with an IC50 of 99 µM and a Ki of 65 µM.
In the experiment listed under Rattus norvegicus, `CCOC(=O)[C@H]1[C@H](C2O[C@@H]3OC(C)(C)O[C@@H]3[C@H]2OCc2ccccc2)[C@@H](C(=O)OCC)N[C@H]1c1ccc(F)cc1` (single isomer, unassigned) had an inhibition of 43.1%. In experiment [1], 75 µM corresponded to half-maximal inhibition (IC50) and the inhibition constant (Ki) amounted to 40 µM.
As to `CCOC(=O)[C@H]1[C@H](C2O[C@@H]3OC(C)(C)O[C@@H]3[C@H]2OC)[C@@H](C(=O)OCC)N[C@H]1c1ccc(Br)cc1` (single isomer, unassigned), the inhibition in the experiment filed under Rattus norvegicus was found to be 26.8%.
Same read-out and setting: the value for `CCOC(=O)[C@H]1[C@H](C2O[C@@H]3OC(C)(C)O[C@@H]3[C@H]2OCc2ccccc2)[C@@H](C(=O)O)N[C@H]1c1cc(Cl)ccc1Cl` (single isomer, unassigned) was 10.5%; that for `CCOC(=O)[C@H]1[C@H](C2O[C@@H]3OC(C)(C)O[C@@H]3[C@H]2OCc2ccccc2)[C@@H](C(=O)O)N[C@H]1c1ccc(Br)cc1` (single isomer, unassigned) was 8.1%.
Same read-out and setting: the value for `CCOC(=O)[C@H]1[C@H](C2O[C@@H]3OC(C)(C)O[C@@H]3[C@H]2OCc2ccccc2)[C@@H](C(=O)O)N[C@H]1c1cccc(Cl)c1` (single isomer, unassigned) was 24.1%; that for `CCOC(=O)[C@H]1[C@H](C2O[C@@H]3OC(C)(C)O[C@@H]3[C@H]2OCc2ccccc2)[C@@H](C(=O)O)N[C@H]1c1cccc([N+](=O)[O-])c1` (single isomer, unassigned) was 10.3%.
Same read-out and setting: the value for `CCOC(=O)[C@H]1[C@H](C2O[C@@H]3OC(C)(C)O[C@@H]3[C@H]2OCc2ccccc2)[C@@H](C(=O)O)N[C@H]1c1cccnc1` (single isomer, unassigned) was 5.1%; that for `CCOC(=O)[C@H]1[C@H](C2O[C@@H]3OC(C)(C)O[C@@H]3[C@H]2OCc2ccccc2)[C@@H](C(=O)OCC)N[C@H]1c1cccnc1` (single isomer, unassigned) was 29.3%.
